This note sets out measurements from patent US12692254B2, “Benzimidazole inhibitors of PAD enzymes” (BRISTOL-MYERS SQUIBB COMPANY, priority 2018, dated 2026).

The target in this assay is human PAD4 (hPAD4) (Homo sapiens, UniProt Q9UM07). Put plainly: RFMS human PAD4 functional assay (rapid-fire mass spectrum). The conditions noted are these: 5 nM hPAD4 enzyme, 250 μM BAEE, 50 μM Calcium; 30 min preincubation, 90 min reaction at 37° C. The assay is classed as biochemical. An outline of the steps: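 PAD4 (10 nM) preincubated 30 min with compound (top final 50 μM), then BAEE substrate added in pH 7.5 HEPES buffer with DTT, 50 μM calcium, TPEN; 90 min at 37° C. After TCA quench, citrulline derivatized with phenyl glyoxal (4 mM final, 30 min, 37° C) and quantified by RapidFire MS against internal standard.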
human PAD4 (hPAD4), sequence (Q9UM07 whole entry): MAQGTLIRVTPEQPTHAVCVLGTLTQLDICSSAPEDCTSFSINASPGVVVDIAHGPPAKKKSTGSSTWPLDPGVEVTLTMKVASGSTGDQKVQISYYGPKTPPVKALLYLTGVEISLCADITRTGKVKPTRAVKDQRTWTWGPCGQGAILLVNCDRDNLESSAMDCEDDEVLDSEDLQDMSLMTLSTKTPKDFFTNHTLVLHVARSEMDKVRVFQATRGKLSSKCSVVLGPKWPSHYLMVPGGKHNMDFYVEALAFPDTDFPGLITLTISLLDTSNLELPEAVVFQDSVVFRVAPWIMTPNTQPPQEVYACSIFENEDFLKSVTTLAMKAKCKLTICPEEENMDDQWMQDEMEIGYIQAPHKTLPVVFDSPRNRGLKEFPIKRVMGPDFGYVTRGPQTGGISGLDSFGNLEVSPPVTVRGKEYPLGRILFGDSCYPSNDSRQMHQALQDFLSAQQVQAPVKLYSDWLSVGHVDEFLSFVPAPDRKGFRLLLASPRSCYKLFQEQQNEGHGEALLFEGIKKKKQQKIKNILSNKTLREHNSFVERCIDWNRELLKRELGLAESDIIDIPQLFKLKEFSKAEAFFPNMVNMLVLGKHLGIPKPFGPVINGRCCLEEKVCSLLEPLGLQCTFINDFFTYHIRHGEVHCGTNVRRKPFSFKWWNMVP

Take `CCC(=O)N1CC(Cn2c(-c3cc4cccnc4n3CC3CC3)nc3cc(C(=O)N4C[C@H]5CC[C@@H]4[C@@H]5N)cc(OC)c32)C1` [Example 134, 1-[3-({5-[(1R,4R,7R)-7-amino-2-azabicyclo[2.2.1]heptane-2-carbonyl]-2-[1-(cyclopropylmethyl)-1H-pyrrolo[2,3-b]pyridin-2-yl]-7-methoxy-1H-1,3-benzodiazol-1-yl}methyl)azetidin-1-yl]propan-1-one]: the IC50 (as a rule, the point on the concentration scale where inhibition reaches its midpoint) came to 193 nM.

For `N[C@@H]1C2CCC1N(C(=O)c1ccc3c(c1)nc(-c1cc4ccccc4n1CC1CC1)n3CC1CN(C(=O)c3ccccc3)C1)C2` (stereo partly drawn) [Example 170, (1R,4R,7R)-2-{1-[(1-benozylazetidin-3-yl)methyl]-2-[1-(cyclopropylmethyl)-1H-indol-2-yl]-1H-1,3-benzodiazol-5-carbonyl}-2-azabicyclo[2.2.1]heptan-7-amine], the IC50 stood at 35 nM.

With `COc1cc(C(=O)N2C[C@H](N)C[C@@H](F)C2)cc2nc(-c3cc4cccnc4n3CC3CC3)n(Cc3cnn(-c4cccc(F)n4)c3)c12` [Example 344, (3R,5R)-1-{2-[1-(cyclopropylmethyl)-1H-pyrrolo[2,3-b]pyridin-2-yl]-1-{[1-(6-fluoropyridin-2-yl)-1H-pyrazol-4-yl]methyl}-7-methoxy-1H-1,3-benzodiazole-5-carbonyl}-5-fluoropiperidin-3-amine], the IC50 was 39 nM.

With `COc1cc(C(=O)N2CC3CCC2[C@@H]3N)cc2nc(-c3cc4cccnc4n3CC3CC3)n([C@H]3C[C@@H](C(N)=O)C3)c12` (stereo partly drawn) [Example 294, (1s,3s)-3-{5-[(1R,4R,7R)-7-amino-2-azabicyclo[2.2.1]heptane-2-carbonyl]-2-[1-(cyclopropylmethyl)-1H-pyrrolo[2,3-b]pyridin-2-yl]-7-methoxy-1H-1,3-benzodiazol-1-yl}cyclobutane-1-carboxamide], the IC50 was 456 nM.

Regarding `COc1cc(C(=O)N2CC3CCC2[C@@H]3N)cc2nc(-c3cc4cccnc4n3CC3CC3)n(Cc3cn[nH]n3)c12` (stereo partly drawn) [Example 485, (7R)-2-{2-[1-(cyclopropylmethyl)-1H-pyrrolo[2,3-b]pyridin-2-yl]-7-methoxy-1-[(2H-1,2,3-triazol-4-yl)methyl]-1H-1,3-benzodiazole-5-carbonyl}-2-azabicyclo[2.2.1]heptan-7-amine], the IC50 came out at 47 nM.

As for `COc1cc(C(=O)N2C[C@H]3CC[C@@H]2[C@@H]3N)cc2nc(-c3cc4ccccc4n3CC3CC3)n(CC3CN(C(=O)c4ccc(C#N)cc4)C3)c12` [Example 91, 4-[3-({5-[(1R,4R,7R)-7-amino-2-azabicyclo[2.2.1]heptane-2-carbonyl]-2-[1-(cyclopropylmethyl)-1H-indol-2-yl]-7-methoxy-1H-1,3-benzodiazol-1-yl}methyl)azetidine-1-carbonyl]benzonitrile], the IC50 amounted to 9 nM.

On to `COc1cc(C(=O)N2CC3CCC2[C@@H]3N)cc2nc(-c3cc4ccccc4n3CC3CC3)n(Cc3cnn(-c4cnccn4)c3)c12` (stereo partly drawn) [Example 358, (7R)-2-{2-[1-(cyclopropylmethyl)-1H-mdol-2-yl]-7-methoxy-1-{[1-(pyrazin-2-yl)-1H-pyrazol-4-yl]methyl}-1H-1,3-benzodiazole-5-carbonyl}-2-azabicyclo[2.2.1]heptan-7-amine], for which the IC50 is 23 nM.

For `COc1cc(C(=O)N2C[C@H]3CC[C@@H]2[C@@H]3N)cc2nc(-c3cc4ccccc4n3CC3CC3)n(CC3CN(C(=O)c4ccc(Cl)cc4)C3)c12` [Example 166, (1R,4R,7R)-2-(1-{[1-(4-chlorobenzoyl)azetidin-3-yl]methyl}-2-[1-(cyclopropylmethyl)-1H-indol-2-yl]-7-methoxy-1H-1,3-benzodiazole-5-carbonyl)-2-azabicyclo[2.2.1]heptan-7-amine], the IC50 came to 31 nM.

With `COc1cc(C(=O)N2C[C@H]3CC[C@@H]2[C@@H]3N)cc2nc(-c3cc4cccnc4n3CC3CC3)n(C3CN(c4nccc(C(=O)O)n4)C3)c12` [Example 72, 2-(3-{5-[(1R,4R,7R)-7-amino-2-azabicyclo[2.2.1]heptane-2-carbonyl]-2-[1-(cyclopropylmethyl)-1H-pyrrolo[2,3-b]pyridin-2-yl]-7-methoxy-1H-1,3-benzodiazol-1-yl}azetidin-1-yl)pyrimidine-4-carboxylic acid], the IC50 came to 113 nM.

Turning to `COc1cc(C(=O)N2CC3CCC2[C@@H]3N)cc2nc(-c3cc4cccnc4n3CC3CC3)n(C[C@@H]3CCN(c4ccnc(C#N)n4)C3)c12` (stereo partly drawn) [Example 205, 4-[(3R)-3-({5-[(1R,4R,7R)-7-amino-2-azabicyclo[2.2.1]heptane-2-carbonyl]-2-[1-(cyclopropylmethyl)-1H-pyrrolo[2,3-b]pyridin-2-yl]-7-methoxy-1H-1,3-benzodiazol-1-yl}methyl)pyrrolidin-l-yl]pyrimidine-2-carbonitrile], the IC50 stood at 37 nM.

As for `N[C@@H]1[C@@H]2CC[C@H]1N(C(=O)c1cc(F)c3c(c1)nc(-c1cc4ccccc4n1CC1CC1)n3CC1CN(C(=O)c3ccncc3)C1)C2` [Example 95, (1R,4R,7R)-2-{2-[1-(cyclopropylmethyl)-1H-indol-2-yl]-7-fluoro-1-{[1-(pyridine-4-carbonyl)azetidin-3-yl]methyl}-1H-1,3-benzodiazole-5-carbonyl}-2-azabicyclo[2.2.1]heptan-7-amine], the IC50 came to 16 nM.

In the case of `COc1cc(C(=O)N2CC3CCC2[C@@H]3N)cc2nc(-c3cc4cccnc4n3CC3CC3)n(C3CN(S(=O)(=O)c4ccc(Cl)nc4)C3)c12` (stereo partly shown) [Example 337], the IC50 was determined as 479 nM.

Take `COc1cc(C(=O)N2CC3CCC2[C@@H]3N)cc2nc(-c3cc4cccnc4n3CC3CC3)n(Cc3cnn(-c4cccc(O)n4)c3)c12` (stereo partly drawn) [Example 353, 6-[4-({5-[(7R)-7-amino-2-azabicyclo[2.2.1]heptane-2-carbonyl]-2-[1-(cyclopropylmethyl)-1H-pyrrolo[2,3-b]pyridin-2-yl]-7-methoxy-1H-1,3-benzodiazol-1-yl}methyl)-1H-pyrazol-1-yl]pyridin-2-ol]: the IC50 turned out to be 20 nM.

On to `COc1cc(C(=O)N2CC(Cn3c(-c4cc5ccccc5n4CC4CC4)nc4cc(C(=O)N5CC6CCC5[C@@H]6N)cc(OC)c43)C2)ccn1` (stereo partly drawn) [Example 417, (7R)-2-{2-[1-(cyclopropylmethyl)-1H-indol-2-yl]-7-methoxy-1-{[1-(2-methoxypyridine-4-carbonyl)azetidin-3-yl]methyl}-1H-1,3-benzodiazole-5-carbonyl}-2-azabicyclo[2.2.1]heptan-7-amine], for which the IC50 was determined as 11 nM.

In the case of `COc1cc(C(=O)N2CC3CCC2[C@@H]3N)cc2nc(-c3cc4cccnc4n3CC3CC3)n(Cc3cnn(-c4cccc(C(F)(F)F)n4)c3)c12` (stereo partly drawn) [Example 356, (7R)-2-{2-[1-(cyclopropylmethyl)-1H-pyrrolo[2,3-b]pyridin-2-yl]-7-methoxy-1-({1-[6-(trifluoromethyl)pyridin-2-yl]-1H-pyrazol-4-yl}methyl)-1H-1,3-benzodiazole-5-carbonyl)-2-azabicyclo[2.2.1]heptan-7-amine], the IC50 was 23 nM.

Turning to `COc1cc(C(=O)N2CC3CCC2[C@@H]3N)cc2nc(-c3cc4ccccc4n3CC3CC3)n(CC3CC(=O)N(C)C3)c12` (stereo partly drawn) [Example 473, 4-({5-[(7R)-7-amino-2-azabicyclo[2.2.1]heptane-2-carbonyl]-2-[1-(cyclopropylmethyl)-1H-indol-2-yl]-7-methoxy-1H-1,3-benzodiazol-1-yl}methyl)-1-methylpyrrolidin-2-one], the IC50 was found to be 129 nM.
